This is an account of results in US11384063B2, “Modulators of estrogen receptor proteolysis and associated methods of use” (Arvinas Operations, Inc., priority 2017, dated 2022).

Molecules are shown by their SMILES.

One assay concerns the target T1, ERα (Homo sapiens, UniProt P03372).
T1 sequence (P03372 1-595): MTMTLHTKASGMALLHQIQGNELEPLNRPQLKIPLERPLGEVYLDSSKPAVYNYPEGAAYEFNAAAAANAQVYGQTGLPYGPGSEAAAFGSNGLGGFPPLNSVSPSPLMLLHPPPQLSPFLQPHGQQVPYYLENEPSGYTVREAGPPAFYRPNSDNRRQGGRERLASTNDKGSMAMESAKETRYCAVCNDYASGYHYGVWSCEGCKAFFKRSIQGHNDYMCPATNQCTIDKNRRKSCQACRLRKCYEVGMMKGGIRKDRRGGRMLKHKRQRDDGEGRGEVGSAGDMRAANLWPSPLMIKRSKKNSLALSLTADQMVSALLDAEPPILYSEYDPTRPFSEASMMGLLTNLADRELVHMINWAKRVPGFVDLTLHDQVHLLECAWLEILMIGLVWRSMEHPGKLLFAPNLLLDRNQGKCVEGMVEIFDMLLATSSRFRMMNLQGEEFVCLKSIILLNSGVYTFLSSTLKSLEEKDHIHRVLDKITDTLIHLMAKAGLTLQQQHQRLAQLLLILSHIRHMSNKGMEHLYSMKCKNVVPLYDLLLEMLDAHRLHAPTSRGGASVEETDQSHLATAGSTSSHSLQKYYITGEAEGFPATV
Kind of assay: ERE luciferase reporter gene assay in T47D-KBluc cells (target engagement). Type of assay: cell-based. Further details: T47D human breast cancer cells stably transfected with estrogen responsive element/promoter/luciferase reporter gene; host or cells: T47D-KBluc cells. Conditions: 10% FBS, 24 hours, Table 1 cereblon centric PROTACs, read-out: ER-α Luciferase IC50. How it is done: Chimeric molecules were assessed for target engagement in T47D cells using the commercial kit of ERE luciferase reporter gene assay. In the assay, 10% FBS was included and estrogen level was measured to be 10 pM.
ERE Luciferase Assay for Compounds in Table 1-3.
T47D-KBluc cells (ATCC #CRL_2865, T47D human breast cancer cells stably transfected with estrogen responsive element/promoter/luciferase reporter gene) were seeded into 96-well white opaque plates in RPMI growth medium supplemented with 10% fetal bovine serum and allowed to adhere overnight in a 37° C. humidified incubator. The following day, cells were treated with PROTACs in a 12-point concentration curve (top final concentration of 300 nM with subsequent concentrations being 3-fold less with 2 pM being the lowest concentration in the assay). Each PROTAC was tested independently in two experiments on 96-well plates. After 24 hours, media was removed and lysis buffer was added to the wells. Following lysis, Bright-Glo™ Luciferase Assay Substrate (Prornega, Madison Wis.) was added and the luciferase activity was measured using a Cytation 3 plate reader (TioTek™, Winooski, Vt.). Each compound was assayed in duplicates and the activity was calculated as IC50 using GraphPad Prism software (San Diego, Calif.).
As a reminder, the IC50 is the concentration that gives 50% inhibition. In the case of `O=C1CCC(N2C(=O)c3ccc(N4CCN(CCCCCCCOc5ccc(Oc6c(-c7ccc(Br)cc7)sc7cc(O)ccc67)cc5)CC4)cc3C2=O)C(=O)N1` (stereo not drawn) [Compound 69], the IC50 turned out to be 0.103 µM.

Regarding `O=C1CCC(N2C(=O)c3ccc(CCCOC4CCN(CCOc5ccc(Oc6c(-c7ccc(Br)cc7)sc7cc(O)ccc67)cc5)CC4)cc3C2=O)C(=O)N1` (stereo not drawn) [Compound 70], the IC50 was determined as 0.0016 µM.

As for `O=C1CCC(N2Cc3cc(NCCCN4CCN(CCOc5ccc(Oc6c(-c7ccc(Br)cc7)sc7cc(O)ccc67)cc5)CC4)ccc3C2=O)C(=O)N1` (stereo not drawn) [Compound 71], the IC50 came out at 0.00094 µM.

Consider `O=C1CCC(N2Cc3cc(NCCOCCOc4ccc(Oc5c(-c6ccc(Br)cc6)sc6cc(O)ccc56)cc4)ccc3C2=O)C(=O)N1` (stereo not drawn) [Compound 72], for which the IC50 worked out at 0.0031 µM.

Regarding `O=C1CCC(N2Cc3cc(CCCOC4CCN(CCOc5ccc(Oc6c(-c7ccc(Br)cc7)sc7cc(O)ccc67)cc5)CC4)ccc3C2=O)C(=O)N1` (stereo not drawn) [Compound 73], the IC50 was determined as 0.0013 µM.

With `O=C1CCC(N2C(=O)c3ccc(NCCOCCOc4ccc(Oc5c(-c6ccc(Br)cc6)sc6cc(O)ccc56)cc4)cc3C2=O)C(=O)N1` (stereo not drawn) [Compound 75], the IC50 was found to be 0.0066 µM.

In the case of `O=C1CCC(N2C(=O)c3ccc(OCCCOCCOc4ccc(Oc5c(-c6ccc(Br)cc6)sc6cc(O)ccc56)cc4)cc3C2=O)C(=O)N1` (stereo not drawn) [Compound 76], the IC50 turned out to be 0.017 µM.

`O=C1CCC(N2C(=O)c3ccc(OCCCOCCCOc4ccc(Oc5c(-c6ccc(Br)cc6)sc6cc(O)ccc56)cc4)cc3C2=O)C(=O)N1` (stereo not drawn) [Compound 77]: the IC50 came out at 0.0341 µM.

For `O=C1CCC(N2C(=O)c3ccc(OCCCOCCOCCOc4ccc(Oc5c(-c6ccc(Br)cc6)sc6cc(O)ccc56)cc4)cc3C2=O)C(=O)N1` (stereo not drawn) [Compound 79], the IC50 was 0.0278 µM.

Turning to `O=C1CCC(N2C(=O)c3ccc(OCCCOCCCOCCCOc4ccc(Oc5c(-c6ccc(Br)cc6)sc6cc(O)ccc56)cc4)cc3C2=O)C(=O)N1` (stereo not drawn) [Compound 80], the IC50 turned out to be 0.0374 µM.

With `O=C1CCC(N2C(=O)c3ccc(NCCCOCCOc4ccc(Oc5c(-c6ccc(Br)cc6)sc6cc(O)ccc56)cc4)cc3C2=O)C(=O)N1` (stereo not drawn) [Compound 81], the IC50 turned out to be 0.0084 µM.

Turning to `O=C1CCC(N2C(=O)c3ccc(NCCCOCCCOc4ccc(Oc5c(-c6ccc(Br)cc6)sc6cc(O)ccc56)cc4)cc3C2=O)C(=O)N1` (stereo not drawn) [Compound 82], the IC50 turned out to be 0.0322 µM.

With `O=C1CCC(N2C(=O)c3ccc(NCCCOCCOCCOc4ccc(Oc5c(-c6ccc(Br)cc6)sc6cc(O)ccc56)cc4)cc3C2=O)C(=O)N1` (stereo not drawn) [Compound 83], the IC50 was 0.0449 µM.

With `O=C1CCC(N2C(=O)c3ccc(NCCCOCCCOCCCOc4ccc(Oc5c(-c6ccc(Br)cc6)sc6cc(O)ccc56)cc4)cc3C2=O)C(=O)N1` (stereo not drawn) [Compound 84], the IC50 is 0.0309 µM.

For `O=C1CCC(N2Cc3cc(NCCCOCCOc4ccc(Oc5c(-c6ccc(Br)cc6)sc6cc(O)ccc56)cc4)ccc3C2=O)C(=O)N1` (stereo not drawn) [Compound 85], the IC50 is 0.006 µM.

With `O=C1CCC(N2Cc3cc(NCCOCCOCCOc4ccc(Oc5c(-c6ccc(Br)cc6)sc6cc(O)ccc56)cc4)ccc3C2=O)C(=O)N1` (stereo not drawn) [Compound 86], the concentration for half-maximal inhibition (IC50) was found to be 0.011 µM.

In the case of `O=C1CCC(N2C(=O)c3ccc(OCCCOCCCOCCOc4ccc(Oc5c(-c6ccc(Br)cc6)sc6cc(O)ccc56)cc4)cc3C2=O)C(=O)N1` (stereo not drawn) [Compound 87], the IC50 is 0.0215 µM.

The assay is the same for the next values; noted with them: 10% FBS, 24 hours, Table 2 VHL centric PROTACs, read-out: IC50.
For `Cc1ncsc1-c1ccc([C@H](C)NC(=O)[C@@H]2C[C@@H](O)CN2C(=O)[C@@H](NC(=O)COCCCOCCCOc2ccc(Oc3c(-c4ccc(F)cc4)sc4cc(O)ccc34)cc2)C(C)(C)C)cc1` [Compound 112, (2S,4R)-1-((S)-2-(2-(3-(3-(4-(2-(4-fluorophenyl)-6-hydroxybenzo[b]thiophen-3-yloxy)phenoxy)propoxy)propoxy)acetamido)-3,3-dimethylbutanoyl)-4-hydroxy-N—((S)-1-(4-(4-methylthiazol-5-yl)phenyl)ethyl)pyrrolidine-2-carboxamide], the IC50 came out at 0.0158 µM.
